The record followed here is US20120022143A1, “RNA Interference Mediated Inhibition of the Thymic Stromal Lymphopoietin (TSLP) Gene Expression Using Short Interfering Nucliec Acid (siNA)” (Merck Sharp & Dohme Corp, priority 2009, published 2012).

The test system of series [1] is TSLP mRNA. Put plainly: Initial screening: TSLP mRNA knock-down by RT-PCR (Taqman) after RNAiMax transfection of NHLF cells. The settings on record: 10 nM siNA, human NHLF cells; for % KD TSLP: 24 hrs post-transfection, relative to non-targeting control, normalized to GAPDH, mean ± s.d. from 2 experiments; for % KD TSLP (10 nM): mean ± s.d. (Table 5). The class given is cell-based.

The test system of a further series is mTSLP mRNA. The series is described as follows: Initial screening: mouse TSLP mRNA knock-down by RT-PCR (Taqman) after RNAiMax transfection of NIH 3T3 cells. The settings on record: 10 nM siNA, 24 hrs post-transfection, mean ± s.d., summary from 2 screens. It counts as cell-based.
For series [2], the system named is TSLP mRNA. The series is described as follows: Dose response curves of TSLP mRNA knock-down in NHLF cells. Conditions: human NHLF cells, mean ± s.d.; for IC50: TSLP mRNA knock-down, 12 concentrations from 0.083 fM to 30 nM; for Maximum % KD in DRC: 12 concentrations of siNA from 0.083 fM to 30 nM. The class given is cell-based. The method, then:
NHLF (human; Lonza cat# CC-2512): Cells were cultured at 37° C. in the presence of 5% CO2 and grown Fibroblast Basal Medium (Lonza cat# CC-3β2) supplemented growth factors (provided with the kit) and 100 μg/mL of streptomycin and 100 U/mL penicillin.
Dose response curves were carried out in a similar fashion in 96-well plates, while maintaining a constant amount of RNAiMax in each transfection.
RNA was extracted from a 96-well plate using the TaqMan® Gene Expression Cells-to-CT™ Kit (Cat# 4399002) with a modified protocol. Briefly, a 60 uL (1 plate) or 110 uL (2 plates) of the Lysis Solution with DNase I was dispensed into each well of the Lysis Buffer Plate (twin.tec full skirt plate). The lysis buffer and stop plates were stored at 4° C. until the cells were washed.
Each well of the reverse transcription plate required 10 uL of 2× reverse transcriptase Buffer, luL of 20× reverse transcription enzyme and 2 uL of nuclease-free water. The reverse transcription master mix was prepared by mixing 2× reverse transcription buffer, 20× reverse transcription enzyme mix, and nuclease-free water. 13 uL of the reverse transcription master mix was dispensed into each well of the reverse transcription plate (semi-skirted). A separate reverse transcription plate was prepared for each cell plate. The plate was loaded onto a Biomek NX or Biomek FX Dual-96 and the Biomek method was run. The program is programmed to automatically added 7 uL of lysate from the cell lysis procedure described above into each well of the reverse transcription plate. The plate is sealed and spun on a centrifuge (1000 rpm for 30 seconds) to settle the contents to the bottom of the reverse transcription plate. The plate is placed in a thermocycler at 37° C. for 60 min, 95° C. for 5 min, and 4° C. until the plate is removed from the thermocycler. Upon removal, if not used immediately, the plate was frozen at −20° C.
A series of probes and primers were used to detect the various mRNA transcripts of the genes of TSLP, IL-8 and GAPDH in human cell lines. All the Taqman probes and primers for the experiments here-in described were supplied as pre-validated sets by Applied Biosystems, Inc. (see Table 2). The assays were performed on an ABI 7900 instrument, according to the manufacturer's instructions.
A TaqMan Gene Expression Master Mix (provided in the Cells-to-CT™, Applied Biosystems, Cat #4399002) was used. The PCR reactions were carried out at 50° C. for 2 min, 95° C. for 20 min followed by 40 cycles at 95° C. for 15 secs and 60° C. for 1 min.
The expression level of the gene of interest and % knock-down was calculated using Comparative Ct method: […]
All calculations of IC50s were performed using SigmaPlot 10.0 software. The data were analyzed using the sigmoidal dose-response (variable slope) equation for simple ligand binding. In all of the calculations of the % knock-down, the calculation was made relative to the normalized level of expression of the gene of interest in the samples treated with the non-targeting control (Ctrl siNA) unless otherwise indicated.
Summary data, as to potency and efficacy for TSLP mRNA knock-down in human cells for certain siNA molecules, is presented in Table 5. Cells for the experiments were treated with 12 concentrations of siNA ranging from 0.083 fM to 30 nM. All of the data is presented as % knockdown of TSLP normalized against the expression of GAPDH mRNA expression level. Then the data was determined as a % knockdown relative to the non-targeting control siNA.

A further series concerns TSLP protein. The series is described as follows: TSLP ELISA in IL-1β/TNFα-stimulated NHLF cells. The settings on record: relative to UC3 siRNA at matched concentration, siNA range 10 nM-0.00015 nM, concentration of the value not stated, mean ± s.d. The class given is cell-based, human. The procedure: In a 96-well plate, 57,500 NHLFcells/well were seeded in 100 uL of complete growth media and incubated overnight at 37° C. with 5% CO2. The cells were transfected with siNAs using RNAiMax (Invitrogen, Cat#13778-150); final concentration of siNAs is 10 nM-0.00015 nM. The amount of RNAiMax in each well is 0.3 uL. The siNAs were incubated for 6 hours. The medium was replaced with 95 uL of fresh complete growth medium and 5 uL/well of IL-1β/TNFα at 10 ng/ml final concentration was added. The cells were incubated for 24 hours. 95 uL of the medium from each well was collected into a separate 96-well plate. The samples were frozen immediately at −80° C. until ready the assay was ready to be performed.
ELISA was performed using DuoSet ELISA Development System (R&D systems, Cat # DY1398) according to the manufacturer's instructions. A seven point standard curve using 2-fold serial dilution in reagent diluent buffer and a high standard of 1000 pg/ml was used. The samples were not diluted. Absorbance was obtained at […] (LM1) and […] (LM2) and the difference (LM1-LM2) was recorded on a SpectraMax plate reader (Molecular Devices) within 30 minutes of stopping the reaction.
Various siNAs were also evaluated for their potential to knock-down TSLP protein using an ELISA assay. Six siNAs were tested in an TSLP ELISA assay across a range of concentrations of siNAs and the level of reduction of protein was determined relative to treatment of the cells with identical concentrations of the negative universal control siNA (UC3) (see Table 6).

[invAb] = inverted abasic unit; d = 2'-deoxy (DNA); m = 2'-O-methyl; r = 2'-OH (RNA); f = 2'-fluoro

In the case of “25434-DC: siNA duplex: sense B GuGGuAuAuAcAAGuAGAu TTB (SEQ ID NO: 51), antisense AUCuAcuuGuAuAuAccAcUU (SEQ ID NO: 52) (sense GUGGUAUAUACAAGUAGAUTT; antisense AUCUACUUGUAUAUACCACUU; sense: DNA at AGT, 2'-fluoro at CU, [invAb] at 5' end, 3' end, backbone not given here; antisense: sugars from the 5' end rrrfmfffmfmfmfmffmfmm, backbone not given here)”, in the series on TSLP mRNA [1], the “% KD TSLP” value is listed as 85 ± 7.6% and the “% KD TSLP (10 nM)” value amounted to 85 ± 7.6%. Moreover, the “% KD mTSLP NIH3T3” value in the series with mTSLP mRNA amounted to 12.6 ± 6.5%. For the same substance, in the series with TSLP mRNA [2], the IC50 is 6.7 ± 2.5 pM and the “Maximum % KD in DRC” value is on record as 79 ± 3%. Also, the “% Reduction TSLP Protein” value in the series on TSLP protein turned out to be 82.1 ± 11.8%.

With “25436-DC: siNA duplex: sense B GccAAGuuuuAAAuAuuAu TTB (SEQ ID NO: 55), antisense AUAAuAuuuAAAAcuuGGcUU (SEQ ID NO: 56) (sense GCCAAGUUUUAAAUAUUAUTT; antisense AUAAUAUUUAAAACUUGGCUU; sense: DNA at AGT, 2'-fluoro at CU, [invAb] at 5' end, 3' end, backbone not given here; antisense: sugars from the 5' end rrrmfmfffmmmmfffmmfmm, backbone not given here)”, in the series with TSLP mRNA [1], the “% KD TSLP” value was determined as 90 ± 5.1% and the “% KD TSLP (10 nM)” value is reported as 90 ± 5.1%. The “% KD mTSLP NIH3T3” value in the series with mTSLP mRNA turned out to be 19.3 ± 6.1%. For the same substance, in the series with TSLP mRNA [2], inhibition was half-maximal at 4.1 ± 1.6 pM (IC50) and the “Maximum % KD in DRC” value worked out at 86 ± 3%. In addition, the “% Reduction TSLP Protein” value in the series on TSLP protein stood at 71.7 ± 20.3%.

Regarding “25438-DC: siNA duplex: sense B GAAGcAAuuuGAAAuAAuu TTB (SEQ ID NO: 59), antisense AAUuAuuucAAAuuGcuucUU (SEQ ID NO: 60) (sense GAAGCAAUUUGAAAUAAUUTT; antisense AAUUAUUUCAAAUUGCUUCUU; sense: DNA at AGT, 2'-fluoro at CU, [invAb] at 5' end, 3' end, backbone not given here; antisense: sugars from the 5' end rrrfmffffmmmffmffffmm, backbone not given here)”, in the series on TSLP mRNA [1], the “% KD TSLP” value stood at 85 ± 6.8% and the “% KD TSLP (10 nM)” value amounted to 85 ± 6.8%. Also, in the series on mTSLP mRNA, the “% KD mTSLP NIH3T3” value is recorded as 9.8 ± 12.2%. In addition, in the series on TSLP mRNA [2], inhibition was half-maximal at 4.1 ± 1.2 pM (IC50) and the “Maximum % KD in DRC” value came to 79 ± 4%. Besides, the “% Reduction TSLP Protein” value in the series with TSLP protein was found to be 51.9 ± 14.1%.

With “25446-DC: siNA duplex: sense B cAGAAGAGuuucuuAAcuu TTB (SEQ ID NO: 75), antisense AAGuuAAGAAAcucuucuGUU (SEQ ID NO: 76) (sense CAGAAGAGUUUCUUAACUUTT; antisense AAGUUAAGAAACUCUUCUGUU; sense: DNA at AGT, 2'-fluoro at CU, [invAb] at 5' end, 3' end, backbone not given here; antisense: sugars from the 5' end r3 f2 m6 f7 m3, backbone not given here)”, in the series on TSLP mRNA [1], the “% KD TSLP” value stood at 84 ± 3.6% and the “% KD TSLP (10 nM)” value was 84 ± 3.6%. Moreover, the “% KD mTSLP NIH3T3” value in the series with mTSLP mRNA was −32.1 ± 18.3%. Also, in the series on TSLP mRNA [2], half-maximal inhibition (IC50) required 9.1 ± 2.4 pM and the “Maximum % KD in DRC” value was 85 ± 2%. The “% Reduction TSLP Protein” value in the series with TSLP protein came to 64.7 ± 3.5%.

For the substance “25449-DC: siNA duplex: sense B AGAAGAGuuucuuAAcuuA TTB (SEQ ID NO: 81), antisense UAAGuuAAGAAAcucuucuUU (SEQ ID NO: 82) (sense AGAAGAGUUUCUUAACUUATT; antisense UAAGUUAAGAAACUCUUCUUU; sense: sugars from the 5' end d7 f6 d2 f3 d3, [invAb] at 5' end, 3' end, backbone not given here; antisense: sugars from the 5' end rrrmffmmmmmmfffffffmm, backbone not given here)”, in the series on TSLP mRNA [1], the “% KD TSLP” value is reported as 84 ± 2.1% and the “% KD TSLP (10 nM)” value was 84 ± 2.1%. In addition, the “% KD mTSLP NIH3T3” value in the series on mTSLP mRNA worked out at 52.9 ± 11.8%. In addition, in the series with TSLP mRNA [2], it took 10.2 ± 3.1 pM to reach half-maximal inhibition (IC50) and the “Maximum % KD in DRC” value was 82 ± 1%. Also, the “% Reduction TSLP Protein” value in the series on TSLP protein turned out to be 45 ± 23.2%.

With “25469-DC: siNA duplex: sense B AAAuGGGAAAuGAGcAAuA TTB (SEQ ID NO: 121), antisense UAUuGcucAuuucccAuuuUU (SEQ ID NO: 122) (sense AAAUGGGAAAUGAGCAAUATT; antisense UAUUGCUCAUUUCCCAUUUUU; sense: DNA at AGT, 2'-fluoro at CU, [invAb] at 5' end, 3' end, backbone not given here; antisense: sugars from the 5' end rrrfmfffmffffffmfffmm, backbone not given here)”, in the series on TSLP mRNA [1], the “% KD TSLP” value was −1 ± 18.8%. For the same substance, in the series on mTSLP mRNA, the “% KD mTSLP NIH3T3” value was −17.2 ± 17.9%.

In the case of “25470-DC: siNA duplex: sense B AAAGuAGAAAAAAAAAuuA TTB (SEQ ID NO: 123), antisense UAAuuuuuuuuucuAcuuuUU (SEQ ID NO: 124) (sense AAAGUAGAAAAAAAAAUUATT; antisense UAAUUUUUUUUUCUACUUUUU; sense: sugars from the 5' end d4 f1 d11 f2 d3, [invAb] at 5' end, 3' end, backbone not given here; antisense: sugars from the 5' end r3 f11 m1 f4 m2, backbone not given here)”, the “% KD TSLP” value in the series with TSLP mRNA [1] amounted to 28 ± 22.6%. Also, the “% KD mTSLP NIH3T3” value with mTSLP mRNA was 19.3 ± 10.3%.

With “25471-DC: siNA duplex: sense B AGuAGAAAAAAAAAuuAAA TTB (SEQ ID NO: 125), antisense UUUAAuuuuuuuuucuAcuUU (SEQ ID NO: 126) (sense AGUAGAAAAAAAAAUUAAATT; antisense UUUAAUUUUUUUUUCUACUUU; sense: sugars from the 5' end d2 f1 d11 f2 d5, [invAb] at 5' end, 3' end, backbone not given here; antisense: sugars from the 5' end rrrmmfffffffffffmffmm, backbone not given here)”, in the series with TSLP mRNA [1], the “% KD TSLP” value is 22 ± 17.1%. Further, the “% KD mTSLP NIH3T3” value in the series with mTSLP mRNA came out at 6.1 ± 9.6%.
